Columns and labels:
Format in all cases: physicochemical
[1] = Hydrogel formation / minimum gelation concentration
Text: To prepare the peptide hydrogels, the lyophilized peptide powders were first dissolved in milliQ water and mixed by vortexing for 30 seconds to obtain a homogenous solution. The gelation occurred between minutes to overnight, depending on the peptide concentration. Gelation can be facilitated by sonication or heating.

[2] = Formation of aggregates and fibrous structures
[3] = Hydrogel rigidity, storage modulus (G′)

For Ac-ILVAG, which hydrogel formation ([1]; at 5 mg/mL) is on record?
The hydrogel formation was “hydrogel”.

With Ac-LD6 (L) as the substance, how does the “concentration at which formation of aggregates is observed” value [2] read?
Its value is 100 µg/mL.

And the “concentration at which peptide monomers align to form fibrous structures” value [2]?
Its value is 1000 µg/mL.

Which “storage modulus (G′)” value ([3]; 20 mg/mL hydrogel in normal saline (NaCl)) does the source give for Ac-LIVAGK-NH2 here?
The value was 10 kPa.

And the “storage modulus (G′)” value ([3]; 20 mg/mL hydrogel in phosphate buffered saline (PBS))?
The value was 40 kPa.

And the “storage modulus (G′)” value ([3]; 20 mg/mL hydrogel in water)?
Its value is 1 kPa.

What about the “storage modulus (G′)” value ([3]; 20 mg/mL hydrogel, addition of sodium hydroxide (NaOH)) of the same substance?
The value was 80 kPa.

And the “minimum gelation concentration (forms hydrogels at)” value (shortened to “minimum gelation concentration”) ([1]; in 10 mM NaOH)?
Its value is 10 mg/mL.

And the minimum gelation concentration (forms hydrogels at) ([1]; in PBS)?
Its minimum gelation concentration (forms hydrogels at) is 7.5 mg/mL.

And the “minimum gelation concentration” value ([1]; in saline)?
Its value is 12 mg/mL.

And the “minimum gelation concentration” value ([1]; in water)?
The value was 20 mg/mL.
